Read-outs that look alike come from different tables or passages of the source. Non-standard residues stand in square brackets, D forms with d. Residues, ends and D or L forms follow the SMILES beside them. 2Nal = N[C@@H](Cc1ccc2ccccc2c1)C(=O)O
What was measured:
[1] = In vitro plasma stability; conditions: for half-life / remaining at 48 h, 100 µM: human; for half-life: plasma; for remaining at 48 h, 100 µM / T1/2: human plasma; for T1/2: 37° C.
Experimental: For time-course assay, 360 μL human plasma was pre-warmed up at 37° C. for 15 min and then spiked with 40 μL of tested peptides (1 mM in 1×PBS). […] Subsequently, 100 μL acetonitrile was added into and then samples were incubated overnight at −20° C. After that, all samples were centrifuged at 13,400 rpm for 10 min and the supernatant was filtered and then analyzed by LC-MS and UPLC (Waters). The area under the curve (AUC) was determined and normalized to the value of the first time point. The half-life (T1/2) was obtained by fitting the data to the one-phase decay equation in GraphPad Prism 9 and expressed as the mean of three individual experiments. For end-point assay, 108 μL human plasma was pre-warmed up at 37° C. for 15 min and then spiked with 12 μL of tested peptides (1 mM in 1×PBS).

[2] = target: Sushi domains (SD1/2) protein; assay: Fluorescence polarization (FP) competition assay with AJAP-1probe, calculated Ki; format: binding
Method in brief: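 Ki values were derived from IC50s (sigmoidal fits, ≥ triplicate), with probe Kd obtained by saturation titration of SD1/2. Peptides displaced a 25 nM TAMRA-labelled probe; polarization read at 530/580 nm in 1% BSA-containing PBS, pH 7.4, room temperature.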

SD1/2 = assay: Solution array of crude APPWT variants, six-point FP inhibition curve; format: binding; conditions: crude peptides of the solution array
Experimental: Parallel synthesis in 96 format peptide synthesis was done using Intavis multipep RSi instrument. Fmoc-PAL resins was used (10 mg per well). Fmoc-amino acids (Fmoc-AA) were dissolved in dimethylformamide (DMF) containing 0.3 M OxymaPure. Throughout the synthesis Fmoc-AA were preactivated with diisopropylcarbodiimide (DIC) for 2 min before adding to the resin. Three couplings using 100 μL Fmoc-AA and 10 μL DIC (3 M in DMF) pr well were employed with coupling times of 5, 15 and 60 min. Removal of Fmoc was performed by washing twice with 120 μl per well of 25% piperidine in DMF for 2 and 8 min. Washing steps after deprotection with piperidine and after coupling steps included washing with DMF (150 μL per well) five times. After synthesis the resins were dried with ethanol and trifluoroacetic acid (TFA) was added using 92% TFA containing 4% triisopropylsilane (TIPS), 1% thioanisol, and 3% H2O for 2 hours. This was done by adding 100 μL per well of the TFA cleavage cocktail over a period of 30 min adding up to a total volume of 1 mL to each well. TFA was then reduced in volume to approximately 100-150 μL by N2 flow and peptides were precipitated by the addition 800 μL of diethylether to each well. The peptides were transferred to Waters solvinert plates and washed thoroughly five times with diethylether 500 μL per well. After washing, the peptides were dried and then dissolved in 80% DMSO. Characterization was performed by UPLC-MS on a setup consisting of a Waters Acquity UPLC system connected to an LCT Premier XE mass spectrometer from Micromass using solvent A 0.1% TFA in H2O and solvent B 0.1% TFA in CH3CN.
We synthesized additional positional scanning array (termed solution array) of APPWT using the conventional on-resin SPPS strategy in 96-well plates. This solution array contained 268 peptides (including two wild type peptides). […] Taking advantage of the high purity of this peptide array, we generated six-point FP inhibition curve of each peptide and the obtained dose response curves enabled us to calculate the binding affinity (Ki) of each peptide variant (data not shown).

[3] = Table 1, affinity maturation, mean ± SEM, n ≥ 3, read-out: Ki
[4] = purified peptides, read-out: Ki
[5] = CPP tagged peptides overview, SD1/2 binding affinity, mean ± SEM, n ≥ 3, read-out: Ki
[6] = Table 14, CPPs tagged peptides, read-out: Ki (nM) mean ± SEM

| SMILES | half-life [1] [h] | Ki [2, 3] [nM] | Ki [2, 5] [nM] | Ki [2, 6] [nM] | Ki (SD1/2) [nM] | further results |
| --- | --- | --- | --- | --- | --- | --- |
| CC(=O)N[C@@H](CCC(=O)O)C(=O)N[C@@H](CC(=O)O)C(=O)N[C@@H](CC(=O)O)C(=O)N[C@@H](CO)C(=O)N[C@@H](CC(=O)O)C(=O)N[C@H](C(=O)N[C@@H](Cc1c[nH]c2ccccc12)C(=O)N[C@@H](Cc1c[nH]c2ccccc12)C(=O)NCC(=O)NCC(=O)N[C@@H](C)C(=O)N[C@@H](CC(=O)O)C(=O)N[C@H](C(=O)N[C@@H](CC(=O)O)C(N)=O)[C@@H](C)O)C(C)C [APPWT] (Ac-EDDSDVWWGGADTD-NH2) | > 48 | 557 ± 9 |  |  | 635 | Ki [2, 4]: 557 ± 9 nM |
| CC(=O)N[C@@H](CCC(=O)O)C(=O)N[C@@H](CC(=O)O)C(=O)N[C@@H](CC(=O)O)C(=O)N[C@@H](CO)C(=O)N[C@@H](Cc1c[nH]c2ccccc12)C(=O)N[C@H](C(=O)N[C@@H](Cc1c[nH]c2ccccc12)C(=O)N[C@@H](Cc1c[nH]c2ccccc12)C(=O)NCC(=O)NCC(=O)N[C@@H](C)C(=O)N[C@@H](CC(=O)O)C(=O)N[C@H](C(=O)N[C@@H](CC(=O)O)C(N)=O)[C@@H](C)O)C(C)C (Ac-EDDSWVWWGGADTD-NH2) |  |  |  |  | 78 | Ki [2, 4]: 100 nM |
| CC(=O)N[C@@H](CCC(=O)O)C(=O)N[C@@H](CC(=O)O)C(=O)N[C@@H](CC(=O)O)C(=O)N[C@@H](CO)C(=O)N[C@@H](CC(=O)O)C(=O)N[C@H](C(=O)N[C@@H](Cc1c[nH]c2ccccc12)C(=O)N[C@@H](Cc1c[nH]c2ccccc12)C(=O)N[C@@H](Cc1ccc(O)cc1)C(=O)NCC(=O)N[C@@H](C)C(=O)N[C@@H](CC(=O)O)C(=O)N[C@H](C(=O)N[C@@H](CC(=O)O)C(N)=O)[C@@H](C)O)C(C)C (Ac-EDDSDVWWYGADTD-NH2) |  |  |  |  | 167 | Ki ([2]; Table 10, deep mutational scanning validation variants of APPWT, read-out: Ki (nM) mean ± SEM): 108 ± 1 nM |
| CC[C@H](C)[C@H](NC(=O)[C@H](Cc1c[nH]c2ccccc12)NC(=O)[C@H](CC(=O)O)NC(=O)[C@H](CC(=O)O)NC(=O)[C@H](CC(=O)O)NC(=O)[C@H](CCC(=O)O)NC(C)=O)C(=O)N[C@@H](CC(=O)O)C(=O)N[C@@H](Cc1c[nH]c2ccccc12)C(=O)NCC(=O)N1CCC[C@H]1C(=O)N[C@H](C(=O)N[C@@H](CO)C(=O)N[C@@H](CC(=O)O)C(=O)N[C@@H](CC(=O)O)C(=O)N[C@@H](CC(=O)O)C(N)=O)[C@@H](C)O [Peptide 17] (Ac-EDDDWIDWGPTSDDD-NH2) | > 48 | 4 ± 0.3 | 4 ± 0.3 |  |  | Ki ([2]; Table 13, peptides for affinity maturation, read-out: Ki (nM) mean ± SEM): 4 ± 0.3 nM |

More lines, main results first:

| half-life [1] [h] | Ki [2, 3] [nM] | Ki [2, 5] [nM] | Ki [2, 6] [nM] | SMILES | Ki (SD1/2) [nM] | further results |
| --- | --- | --- | --- | --- | --- | --- |
| > 48 |  | 58 ± 3 | 58.1 ± 3 | CC[C@H](C)[C@H](NC(=O)[C@H](Cc1c[nH]c2ccccc12)NC(=O)[C@H](CC(=O)O)NC(=O)[C@H](CC(=O)O)NC(=O)[C@H](CC(=O)O)NC(=O)[C@H](CCC(=O)O)NC(=O)[C@H](CCCNC(=N)N)NC(=O)[C@H](CCCNC(=N)N)NC(=O)[C@H](CCCNC(=N)N)NC(=O)[C@H](CCCNC(=N)N)NC(=O)[C@H](CCCNC(=N)N)NC(=O)[C@H](CCCNC(=N)N)NC(=O)[C@H](CCCNC(=N)N)NC(=O)[C@H](CCCNC(=N)N)NC(C)=O)C(=O)N[C@@H](CC(=O)O)C(=O)N[C@@H](Cc1c[nH]c2ccccc12)C(=O)NCC(=O)N1CCC[C@H]1C(=O)N[C@H](C(=O)N[C@@H](CO)C(=O)N[C@@H](CC(=O)O)C(=O)N[C@@H](CC(=O)O)C(=O)N[C@@H](CC(=O)O)C(N)=O)[C@@H](C)O [Peptide R8-17] (Ac-RRRRRRRREDDDWIDWGPTSDDD-NH2) |  | remaining at 48 h, 100 µM [1]: ~50% |
|  |  |  | 6.4 ± 0.1 | CC[C@H](C)[C@H](NC(=O)[C@H](Cc1c[nH]c2ccccc12)NC(=O)[C@H](CC(=O)O)NC(=O)[C@H](CC(=O)O)NC(=O)[C@H](CC(=O)O)NC(=O)[C@H](CCC(=O)O)NC(=O)[C@H](CCCNC(=N)N)NC(=O)[C@H](CCCNC(=N)N)NC(=O)[C@H](CCCNC(=N)N)NC(C)=O)C(=O)N[C@@H](CC(=O)O)C(=O)N[C@@H](Cc1c[nH]c2ccccc12)C(=O)N[C@@H](Cc1ccc(O)cc1)C(=O)N[C@@H](CC(=O)O)C(=O)N[C@@H](CO)C(=O)N[C@@H](CC(=O)O)C(=O)N[C@@H](CC(=O)O)C(=O)N[C@@H](CC(=O)O)C(N)=O [Peptide R3-16] (Ac-RRREDDDWIDWYDSDDD-NH2) |  | remaining at 48 h, 100 µM [1]: ~80% |
| > 48 |  | 13 ± 1 | 13 ± 1 | CC[C@H](C)[C@H](NC(=O)[C@H](Cc1ccc2ccccc2c1)NC(=O)[C@H](CC(=O)O)NC(=O)[C@H](CC(=O)O)NC(=O)[C@H](CC(=O)O)NC(=O)[C@H](CCC(=O)O)NC(=O)[C@H](CCCNC(=N)N)NC(=O)[C@H](CCCNC(=N)N)NC(=O)[C@H](CCCNC(=N)N)NC(=O)[C@H](CCCNC(=N)N)NC(C)=O)C(=O)N[C@@H](CC(=O)O)C(=O)N[C@@H](Cc1c[nH]c2ccccc12)C(=O)NCC(=O)N1CCC[C@H]1C(=O)N[C@H](C(=O)N[C@@H](CO)C(=O)N[C@@H](CC(=O)O)C(=O)N[C@@H](CC(=O)O)C(=O)N[C@@H](CC(=O)O)C(N)=O)[C@@H](C)O [Peptide R4-21] (Ac-RRRREDDD[2Nal]IDWGPTSDDD-NH2) |  | T1/2 [1]: >48 h |
| > 48 | 5.3 ± 0.2 | 5.3 ± 0.2 |  | CC[C@H](C)[C@H](NC(=O)[C@H](Cc1ccc2ccccc2c1)NC(=O)[C@H](CC(=O)O)NC(=O)[C@H](CC(=O)O)NC(=O)[C@H](CC(=O)O)NC(=O)[C@H](CCC(=O)O)NC(C)=O)C(=O)N[C@@H](CC(=O)O)C(=O)N[C@@H](Cc1c[nH]c2ccccc12)C(=O)NCC(=O)N1CCC[C@H]1C(=O)N[C@H](C(=O)N[C@@H](CO)C(=O)N[C@@H](CC(=O)O)C(=O)N[C@@H](CC(=O)O)C(=O)N[C@@H](CC(=O)O)C(N)=O)[C@@H](C)O [Peptide 21] (Ac-EDDD[2Nal]IDWGPTSDDD-NH2) |  | Ki ([2]; Table 16, ncAAs incorporated peptides, read-out: Ki (nM) mean ± SEM): 5.3 ± 0.2 nM |
| > 48 |  | 12 ± 1 | 15 ± 1 | CC[C@H](C)[C@H](NC(=O)[C@H](Cc1ccc2ccccc2c1)NC(=O)[C@H](CC(=O)O)NC(=O)[C@H](CC(=O)O)NC(=O)[C@H](CC(=O)O)NC(=O)[C@H](CCC(=O)O)NC(=O)[C@H](CCCNC(=N)N)NC(=O)[C@H](CCCNC(=N)N)NC(=O)[C@H](CCCNC(=N)N)NC(=O)[C@H](CCCNC(=N)N)NC(C)=O)C(=O)N[C@@H](CC(=O)O)C(=O)N[C@@H](Cc1c[nH]c2ccccc12)C(=O)N[C@@H](Cc1ccc(O)cc1)C(=O)N[C@@H](CC(=O)O)C(=O)N[C@@H](CO)C(=O)N[C@@H](CC(=O)O)C(=O)N[C@@H](CC(=O)O)C(=O)N[C@@H](CC(=O)O)C(N)=O [Peptide R4-20] (Ac-RRRREDDD[2Nal]IDWYDSDDD-NH2) |  | T1/2 [1]: >48 h; fold higher affinity than 4R-16 ([2]; 4R tagged peptides): about 2 fold |

Source: patent US20260193293A1, “PEPTIDES CAPABLE OF INHIBITING PROTEIN-PROTEIN INTERACTIONS AT GABAB1A SUBUNIT AND USES THEREOF” (UNIVERSITY OF COPENHAGEN, priority 2022, published 2026)
